Legend:
A. baumannii SC300007 = assay: microbe, parasite or virus in culture; assay type: cell-based
Experimental: (§1) Antimicrobial testing – Microdilution
(§2) Antimicrobial testing was performed according to CLSI and EUCAST guidelines in microdilution.8-10 Therefore, all tested substances as well as controls were dissolved in water in different concentrations and serially diluted in MHB II (cation adjusted) on the 96-well plate. A logarithmic growing, overnight culture of the respective bacterial strain was used and adjusted to a McFarland corresponding to 1 × 10^8 cfu/ml. Afterwards the bacterial suspension was diluted to 1 ×10^6 cfu/ml and loaded on the 96-well polypropylene plates, resulting in a final bacterial concentration of 5 × 10^5 cfu/ml. After an incubation at 35 ± 1 °C for 18-20 hours (re-controlled after 24 hours) the MIC was determined as the lowest concentration without visible growth as described previously.11 For direct comparison of the tested substances, all results were calculated in mg/ml and mol/ml afterwards. […]
(§3) As further control substance, the glycopeptide antibiotic teicoplanin was evaluated. […] Resistance development in S. aureus was determined by passaging bacteria in increasing amounts of vancomycin, FU002 or, as control, fusidic acid. In principle, tubes with twofold dilutions of the compounds in 1 ml Muller Hinton broth were inoculated 1:100 with bacterial suspension. The tubes were then incubated for 24 h at 37 °C under shaking. After each passage, the tube with the highest compound concentration showing bacterial growth was used to inoculate the tubes of the next passage (1:100). The tube with the lowest compound concentration showing no growth was defined as the passage MIC. Passaging was stopped after 8 passages.
(§4) For the validation of possible side effects provoked by the conjugates, the cytotoxic effect of the lead candidate FU002 on human cells was assessed in a colorimetric viability assay. Different human cell types were used including kidney and liver cell lines as well as freshly isolated peripheral blood cells. Cells were seeded into 96-well microtiter plates at 2 x 10^4 cells/well and cultured overnight (18-24 h) in a […]

[1] = test system: K. pneumoniae ATCC 700603; assay: microbe, parasite or virus in culture; assay type: cell-based
Experimental: as §1, §2, §3, §4

E. coli ATCC 25922 = assay type: cell-based; conditions: median of at least triplicates on two different plates
Experimental: as §1, §2
(§5) Resistance development in S. aureus was determined by passaging bacteria in increasing amounts of vancomycin, FU002 or, as control, fusidic acid. In principle, tubes with twofold dilutions of the compounds in 1 ml Muller Hinton broth were inoculated 1:100 with bacterial suspension. […]
(§6) For the validation of possible side effects provoked by the conjugates, the cytotoxic effect of the lead candidate FU002 on human cells was assessed in a colorimetric viability assay. […]

P. aeruginosa ATCC 27853 = assay type: cell-based; conditions: median of at least triplicates on two different plates
Experimental: as §1, §2
(§7) As further control substance, the glycopeptide antibiotic teicoplanin was evaluated. […] Resistance development in S. aureus was determined by passaging bacteria in increasing amounts of vancomycin, FU002 or, as control, fusidic acid. […]
as §6

[2] = test system: vancomycin-resistant strains (vanA, vanB and vanC); assay type: cell-based; conditions: all values, vanB and vanC resistance types
Experimental: as §1, §2, §7, §6

[3] = test system: human cell lines (blood, liver, kidney); assay: Cytotoxicity, XTT viability assay; assay type: cell-based; conditions: 64 µg/ml, 24 h incubation, three human cell lines (blood, liver, kidney)
[4] = test system: Staphylococcus aureus USA300; assay: Broth microdilution on vancomycin-sensitive strain; assay type: cell-based
Experimental: as §1, §2, §5, §6

[5] = test system: Staphylococcus aureus USA300 LAC (MRSA) infected mice; assay: In vivo efficacy model in infected mice; conditions: female Balb/c mice, FU002 56.4 mg/kg body weight per day

SMILES	MIC (A. baumannii SC300007; Acinetobacter baumannii, SC300007) [µg/mL]	MIC ([1]; Klebsiella pneumoniae, ATCC700603) [µg/mL]	MIC (E. coli ATCC 25922) [µg/mL]	MIC (A. baumannii SC300007; A. baumannii SC300007, median of at least triplicates on two different plates) [µg/mL]	MIC ([1]; K. pneumoniae ATCC 700603, median of at least triplicates on two different plates) [µg/mL]	MIC (P. aeruginosa ATCC 27853) [µg/mL]	MIC (minimum inhibitory concentration) [2]	cytotoxicity [3]	activity compared with vancomycin (MIC) [4]	bacterial burden, colony forming units (CFU) in the liver ([5]; day 4 post infection, p < 0.05, Kruskal-Wallis test)	body weight of infected mice ([5]; i.v. infection, doses every 12 hours, start 2 hours p.i.)
CN[C@H](CC(C)C)C(=O)N[C@H]1C(=O)N[C@@H](CC(N)=O)C(=O)N[C@H]2C(=O)N[C@H]3C(=O)N[C@H](C(=O)N[C@H](C(=O)O)c4cc(O)cc(O)c4-c4cc3ccc4O)[C@H](O)c3ccc(c(Cl)c3)Oc3cc2cc(c3O[C@@H]2O[C@H](CO)[C@@H](O)[C@H](O)[C@H]2O[C@H]2C[C@](C)(N)[C@H](O)[C@H](C)O2)Oc2ccc(cc2Cl)[C@H]1O [vancomycin]	≥ 640	≥ 640									
CC(C)C[C@H](C(=O)N[C@H]1C(=O)N[C@@H](CC(N)=O)C(=O)N[C@H]2C(=O)N[C@H]3C(=O)N[C@H](C(=O)N[C@H](C(=O)O)c4cc(O)cc(O)c4-c4cc3ccc4O)[C@H](O)c3ccc(c(Cl)c3)Oc3cc2cc(c3O[C@@H]2O[C@H](CO)[C@@H](O)[C@H](O)[C@H]2O[C@H]2C[C@](C)(N)[C@H](O)[C@H](C)O2)Oc2ccc(cc2Cl)[C@H]1O)N(C)C(=O)C1CCC(CN2C(=O)CC(SC[C@H](NC(=O)[C@H](CCCNC(=N)N)NC(=O)[C@H](CCCNC(=N)N)NC(=O)[C@H](CCCNC(=N)N)NC(=O)[C@H](CCCNC(=N)N)NC(=O)[C@H](CCCNC(=N)N)NC(=O)[C@@H](N)CCCNC(=N)N)C(N)=O)C2=O)CC1 (some centres unmarked) [FU002]			≥ 640	≥ 640	≥ 640	≥ 640	below 4 mg L^−1	no relevant cytotoxicity	at least as active as vancomycin	significant reduction of bacterial burden	No infection‐related body weight loss

From publication PMC7323874, “Vancomycin Resistance Is Overcome by Conjugation of Polycationic Peptides” (Angewandte Chemie (International Ed. in English), 2020)
